Consider six compounds from publication PMC12271471, “Direct synthesis of mycophenolic acid aryl esters with antioxidant and antiproliferative properties” (Scientific Reports, 2025).

The nature of test [1]: DPPH radical scavenging test (colorimetric). To be noted: concentration scavenging 50% of DPPH radicals; 10 min, room temperature, 517 nm; mean ± SD. How it is done: Antioxidative properties of the obtained MPA derivatives were assessed chemically using a colorimetric DPPH test. The IC50 value represents the scavenging activity, defined as the concentration of a compound required to scavenge 50% of DPPH radicals.
Briefly, 400 µL solution of each synthesized compound with different concentrations (20–1000 µg/mL) was added to 1.6 mL DPPH solution (100 µmol/L). After shaking, the mixture was incubated at room temperature in the dark for 10 min, and then the absorbance was measured at 517 nm. The %Scavenging activity was calculated by using the formula: […]
The scavenging activity was expressed as IC50 value, defined as the concentration (mM) of compound required for scavenging DPPH radicals by 50%. IC50 values were determined by linear regression analysis using at least three different concentrations in duplicate.
Three different concentrations were prepared for each sample, while each one was analyzed in duplicate. […] The statistical analysis was performed using Tukey’s HSD test (p < 0.05). The statistical software Statistica 10 software (StatSoft Inc., Tulsa, OK, USA) was implemented for this analysis.
(DPPH is a stable violet radical that fades when it is reduced.)

In test [2] the test system is T-Jurkat cells. Briefly: VPD450 proliferation test (flow cytometry) on T-Jurkat cells. The conditions noted are these: for EC50: Homo sapiens, T-Jurkat, 48 h, mean ± SD; for IS internal selectivity (EC50 PBMCs / EC50 T-Jurkat): ratio between VPD450 EC50 values for PBMCs and T-Jurkat cell line. Format: cell-based, human. How it is done:
(§1) These values indicate the concentration of any compound at which proliferation of PBMCs (healthy cells), and T-Jurkat cells (T-cell leukemia), is inhibited by 50% compared to the control. Cells were treated with the compounds for 72 h (PBMCs) or 48 h (T-Jurkat), followed by a […] VPD450 test. The results are presented in ESI Fig. S3 as proliferation curves concerning concentration.
(§2) ESI Figure 3. Concentration-dependent change in proliferation under the treatment of ester derivatives of MPA. (A) VPD450-labelled PBMCs were cultured in the presence of different concentrations (100; 50; 25; 10; 1; 0.1, and 0.01 μM) of MPA, MMF, and ester derivatives, and stimulated with magnetic beads coated with anti-CD3 and anti-CD28 antibodies for 72 hours. (B) VPD450-labelled T-Jurkat cells were cultured in the presence of different concentrations (100; 10; 1; 0.1 and 0.01 μM) of MPA and ester derivatives for 48 hours. The plots were separated based on the type of ester derivative (P or MP). Cell proliferation was analyzed using flow cytometry. The results are expressed […]
(§3) (1 picture or pasted object on this page, not shown here) […]
(§4) inhibited cell viability by more than 50%. Each experiment was conducted in triplicate, and the final […]
(§5) VPD450 dye-based in vitro cell proliferation test
(§6) PBMCs and T-Jurkat cells were washed twice with warm PBS (37°C), re-suspended in fresh PBS at a final concentration of 10-30∙10^6 cells/ml, and labelled with 1 µl of VPD450 (BD Biosciences) at 37°C for 15 minutes, with vortexing every 5 minutes to ensure uniform staining. Subsequently, cells were washed with PBS, then with the complete medium (X-VIVO20 for PBMCs and RPMI-1640 for T-Jurkat cells), next re-suspended in fresh complete medium and seeded into 96-well plates at a concentration of 1∙10^6 cells per well. PBMCs were additionally stimulated with magnetic beads coated with anti-CD3 and anti-CD28 antibodies (Invitrogen) at a 2:1 cell-to-bead ratio. To the experimental wells, 100 µl of the MPA derivatives were added to achieve final concentrations of 50, 25, 10, 5, 1, 0.1, and 0.01 µM. In parallel, control wells containing stained but unstimulated cells and stained, stimulated cells were prepared at the same concentration. Cell proliferation was analyzed using an LSRFortessa flow cytometer (BD Biosciences) and Kaluza C Flow Cytometry Analysis Software (Beckman Coulter). […]
(§7) Statistical analysis was conducted using GraphPad Prism 9 (GraphPad Software Inc).
(§8) Differences between MMF, MPA and its new derivatives were assessed using a two-tailed unpaired Student’s t-test, with statistical significance defined as p < 0.05. EC50 and IC50 values were determined by fitting data to a four-parameter non-linear regression model in GraphPad Prism 9. Statistical significance was evaluated using the t-test.
(In general: In flow cytometry, cells or beads pass a laser one at a time.)

For test [3], the system named is PBMCs. Briefly: XTT cytotoxicity test on PBMCs. Format: cell-based. To be noted: Homo sapiens, PBMC, 72 h (ESI: 96 h), viability, mean ± SD, read-out: Relative IC50 PBMCs (XTT). How it is done:
(§9) Table 3 presents the IC50 values obtained from the XTT test on PBMCs and the T-Jurkat cell line, using MPA and MMF as standards. These values indicate the concentration of each compound required to reduce the viability of PBMCs (healthy cells) and T-Jurkat cells (T-cell leukemia) by 50% compared to the control. Cells were treated with compounds for 72 h (PBMCs) or 48 h (T-Jurkat), followed by a colorimetric XTT test. The results are illustrated in ESI Fig. S2 as a viability curve in relation to concentration.
Biological evaluation — PBMC and T-Jurkat cells […]
(§10) Human peripheral blood mononuclear cells (PBMCs) were isolated from buffy coats provided by anonymous, healthy volunteers with an average age of 35±4 years during routine transfusion procedure. These samples were received by the Authors from the Regional Centre for Blood Donation and Treatment in Gdańsk (Poland). […]
(§11) solely for PBMCs isolation. PBMCs were suspended in a complete X-VIVO medium, consisting of X-VIVO20, 10% heat-inactivated human AB serum, penicillin (100 U/ml), and streptomycin ([…]).
(§12) MPA derivatives preparation
(§13) To achieve the desired concentrations of the tested compounds, the substances were first dissolved in DMSO to reach a final concentration of 0.01 M. The solutions were then diluted in the appropriate additive-free medium (RPMI-1640 for T-Jurkat cells and X-VIVO20 for PBMCs) to obtain […]
(§14) Peripheral blood mononuclear cells were isolated by gradient centrifugation, as described previously. Buffy coats were diluted with phosphate-buffered saline (PBS, pH = 7.4, ThermoFisher Scientific) in a 1:1 ratio, layered at Ficoll-Paque™ PLUS (VWR International), and centrifuged at 800 × g for 20 minutes. The PBMC layer was collected and washed twice with PBS (1st wash: 600 × g for 10 minutes; 2nd wash: 600 × g for 5 minutes). Cell amount and viability were assessed using the Bio-Rad TC20™ automated cell counter combined with trypan blue staining.
(§15) XTT dye-based in vitro cytotoxicity test
(§16) The cytotoxic effects of mycophenolic acid (MPA) derivatives were assessed using an in vitro XTT-based assay (Roche). PBMCs in complete X-VIVO20 medium and T-Jurkat cells in complete RPMI-1640 medium were seeded into 96-well plates at a concentration of 5∙10^5 cells/50 µl per well. 50 µl of tested compounds were added to the experimental wells to achieve final concentrations of 50, 25, 10, 5, 1, 0.1, and 0.01 µM. The background control consisted of the medium without cells, while untreated cells served as the positive control. After incubating for 48 hours for T-Jurkat cells and 96 hours for PBMCs in a humidified atmosphere with 5% CO2 at 37°C, 50 µl of freshly prepared XTT reagent was added to all wells according to the manufacturer's instructions. The plates were then incubated for an additional 24 hours under the same conditions. The conversion of the water-soluble yellow XTT tetrazolium salt to orange formazan was quantified by measuring the optical density (OD) at 450 nm using an Agilent BioTek Epoch Microplate Spectrophotometer (Agilent Technologies), with a reference wavelength of 690 nm. The results were expressed as IC50 values for compounds that […]
(§17) inhibited cell viability by more than 50%. […]
PBMCs were suspended in a 15 mL centrifuge tube at a concentration of 10-30 × 10⁶ cells in 1 mL of PBS, then, 2 μL of 1 mM VPD 450 dye solution was added, incubated for 15 min at 37°C, washed with a 9-fold volume of warm PBS and centrifuged at 400 x g for 5 min. Then, the cells were suspended in 10 mL of X-VIVO medium with 10% FBS and centrifuged again at 400 x g for 5 min. After suspending the cells in the complete medium, the staining level was checked using flow cytometry. The cells thus obtained were stimulated with anti-CD3/anti-CD28 antibodies as described previously (see VPD450 dye-based in vitro cell proliferation test). To perform the GMP test, a proper amount of GMP was added to each well to reach its final concentration of 50 μM, and then incubated for 72 hours. Proliferative […]
Background: Tetrazolium dyes change colour on reduction, which living cells bring about.

The subject of test [4] is PBMCs. Put plainly: VPD450 proliferation test (flow cytometry) on PBMCs. Format: cell-based, human. To be noted: for EC50: Homo sapiens, PBMC, PBMCs stimulated with anti-CD3/anti-CD28 beads, 72 h, mean ± SD; for SI selectivity index PBMCs (IC50/EC50): ratio between IC50 (XTT) and EC50 (VPD450) on PBMCs. As for the experimental part: as §1, §2, §3, §4, §5, §6, §7, §8

For test [5], the system named is T-Jurkat cells. Briefly: XTT cytotoxicity test on T-Jurkat cell line. Format: cell-based, human. As for the experimental part: as §9
Biological evaluation — PBMC and T-Jurkat cells
The T-Jurkat cell line (Clone E6-1, ATCC TIB-152), derived from a human acute T-cell leukemia, was obtained from the cell bank of the Department of Medical Immunology at the Medical University of Gdańsk. Before experimentation, the cells were thawed and cultured for about 7 days to reach the logarithmic phase of growth. The T-Jurkat cell line was suspended in a complete RPMI medium, which included RPMI-1640, 10% FBS, penicillin (100 U/ml), and streptomycin ([…]).
as §10, §11, §12, §13, §14, §15, §16, §17
PBMCs were suspended in a 15 mL centrifuge tube at a concentration of 10-30 × 10⁶ cells in 1 mL of PBS, then, 2 μL of 1 mM VPD 450 dye solution was added, incubated for 15 min at 37°C, washed with a 9-fold volume of warm PBS and centrifuged at 400 x g for 5 min. Then, the cells were suspended […]

Each structure is given as a SMILES string.

A word on the IC50: it is the concentration at which inhibition is half-maximal. As for `Cc1c(C)c2c(c(C)c1O)CCC(C)(C(=O)O)O2` (stereo not drawn) [Trolox, reference compound], 8 µM corresponded to half-maximal inhibition in test [1] (IC50).

As a reminder, the EC50 is the midpoint of the concentration-response curve. A lower EC50 goes with an effect from little substance. For the compound `C=C[C@@](C)(/C=C/c1ccc(OC(=O)CC/C(C)=C/Cc2c(O)c3c(c(C)c2OC)COC3=O)cc1)CCC=C(C)C` [P3], the EC50 turned out to be 1.34 ± 0.035 µM in the test with T-Jurkat cells [2] and 1.052 ± 0.004 µM in the test with PBMCs [4]. For the same compound, the values for the IC50 (in the test on PBMCs [3]; in test [1]) were 14.117 ± 0.007 µM and 20100 ± 258 µM, respectively. The “SI selectivity index PBMCs (IC50/EC50)” value with PBMCs [4] is recorded as 13.419.

With `COc1c(C)c2c(c(O)c1C/C=C(\C)CCC(=O)Oc1ccc(/C=C/C(C)=O)cc1)C(=O)OC2` [P6], the figures for the EC50 with T-Jurkat cells [2] and with PBMCs [4] were 2.84 ± 0.033 µM and 2.215 ± 0.004 µM, respectively. For the same compound, the “IS internal selectivity (EC50 PBMCs / EC50 T-Jurkat)” value in the test on T-Jurkat cells [2] is on record as 0.780. Besides, the results for the IC50 (in the test on PBMCs [3]; in test [1]) were 8.836 ± 0.02 µM and 35800 ± 403 µM, respectively. Moreover, in the test with PBMCs [4], the “SI selectivity index PBMCs (IC50/EC50)” value was 3.989.

For `COc1cc(CCC(C)=O)ccc1OC(=O)CC/C(C)=C/Cc1c(O)c2c(c(C)c1OC)COC2=O` [MP6], in the test on T-Jurkat cells [2], the EC50 is 0.662 ± 0.031 µM and the “IS internal selectivity (EC50 PBMCs / EC50 T-Jurkat)” value stood at 1.755. In addition, the IC50 in the test on PBMCs [3] amounted to 14.71 ± 0.045 µM. Also, in the test on PBMCs [4], the EC50 came out at 1.162 ± 0.003 µM and the “SI selectivity index PBMCs (IC50/EC50)” value turned out to be 12.664. Moreover, in test [1], half-maximal inhibition (IC50) was put at 14900 ± 340 µM.

Regarding `COc1cc(/C=C/C(C)=O)ccc1OC(=O)CC/C(C)=C/Cc1c(O)c2c(c(C)c1OC)COC2=O` [MP5], in the test on T-Jurkat cells [2], a half-maximal response (EC50) required 1.08 ± 0.036 µM and the “IS internal selectivity (EC50 PBMCs / EC50 T-Jurkat)” value is 10.542. Besides, the “SI selectivity index T-Jurkat (IC50/EC50)” value in the test on T-Jurkat cells [2] (ratio between IC50 (XTT) and EC50 (VPD450) on T-Jurkat cell line) was 2.149. In addition, in the test on PBMCs [3], the IC50 stood at 30.698 ± 0.024 µM. Besides, in the test with PBMCs [4], the EC50 was determined as 11.406 ± 0.003 µM and the “SI selectivity index PBMCs (IC50/EC50)” value is on record as 2.691. The IC50 with T-Jurkat cells [5] (Homo sapiens, T-Jurkat, 48 h, viability, mean ± SD, read-out: Relative IC50 T-Jurkat (XTT)) is 2.325 ± 0.004 µM. Besides, the “IS internal selectivity (IC50 PBMCs / IC50 T-Jurkat)” value with T-Jurkat cells [5] (ratio between XTT IC50 values for PBMCs and T-Jurkat cell line) is 13.203.

Turning to `O=C1O[C@H]([C@@H](O)CO)C(O)=C1O` [Ascorbic acid, reference compound], the IC50 in test [1] was determined as 545 µM.
